Laboratory results as given in patent publication US7915448B2, “Substituted sulfonylaminoarylmethyl cyclopropanecarboxamide as VR1 receptor antagonists” (Pfizer Inc., priority 2005, dated 2011).

Key:
human VR1 receptors = target: T1, human VR1 receptors (Homo sapiens, UniProt Q8NER1); test: Human VR1 antagonist assay (Ca2+ imaging); assay type: cell-based; conditions: cells expressing human VR1, fura-2 Ca2+ imaging, FDSS 6000; capsaicin (300 nM) or acid (pH5.8) stimulation, table does not say which
T1 construct: host or cells: cells highly expressing human VR1; cell type not specified
Procedure, shortened: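 Human VR1-expressing cells loaded with 5 μM fura-2/AM for 1 h, resuspended at 3.75×10^5 cells/ml and preincubated 15 min at room temperature in the dark with compound. Stimulation by 300 nM capsaicin in KRH buffer pH 7.3, or by acid (HBSS/MES, final pH 5.8) from HBSS-HEPES pH 7.4; fluorescence (ex 340/380 nm, em 510-520 nm) monitored from 1 min before addition for 5 min.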

[1] = human, microsomes, pH 7.4
Protocol: (§1) Test compounds (1 μM) were incubated with 3.3 mM MgCl2 and 0.78 mg/mL HLM (HL101) in 100 mM potassium phosphate buffer (pH 7.4) at 37° C. on the 96-deep well plate. The reaction mixture was split into two groups, a non-P450 and a P450 group. NADPH was only added to the reaction mixture of the P450 group. An aliquot of samples of P450 group was collected at 0, 10, 30, and 60 min time point, where 0 min time point indicated the time when NADPH was added into the reaction mixture of P450 group. An aliquot of samples of non-P450 group was collected at −10 and 65 min time point. Collected aliquots were extracted with acetonitrile solution containing an internal standard. The precipitated protein was spun down in centrifuge (2000 rpm, 15 min). The compound concentration in supernatant was measured by LC/MS/MS system.
(§2) The half-life value was obtained by plotting the natural logarithm of the peak area ratio of compounds/internal standard versus time. The slope of the line of best fit through the points yields the rate of metabolism (k).

[2] = Half-life in Human Liver Microsomes (HLM); conditions: human, human liver microsomes (HL101), pH 7.4
Protocol: as §1, §2

T1 sequence (Q8NER1 whole entry): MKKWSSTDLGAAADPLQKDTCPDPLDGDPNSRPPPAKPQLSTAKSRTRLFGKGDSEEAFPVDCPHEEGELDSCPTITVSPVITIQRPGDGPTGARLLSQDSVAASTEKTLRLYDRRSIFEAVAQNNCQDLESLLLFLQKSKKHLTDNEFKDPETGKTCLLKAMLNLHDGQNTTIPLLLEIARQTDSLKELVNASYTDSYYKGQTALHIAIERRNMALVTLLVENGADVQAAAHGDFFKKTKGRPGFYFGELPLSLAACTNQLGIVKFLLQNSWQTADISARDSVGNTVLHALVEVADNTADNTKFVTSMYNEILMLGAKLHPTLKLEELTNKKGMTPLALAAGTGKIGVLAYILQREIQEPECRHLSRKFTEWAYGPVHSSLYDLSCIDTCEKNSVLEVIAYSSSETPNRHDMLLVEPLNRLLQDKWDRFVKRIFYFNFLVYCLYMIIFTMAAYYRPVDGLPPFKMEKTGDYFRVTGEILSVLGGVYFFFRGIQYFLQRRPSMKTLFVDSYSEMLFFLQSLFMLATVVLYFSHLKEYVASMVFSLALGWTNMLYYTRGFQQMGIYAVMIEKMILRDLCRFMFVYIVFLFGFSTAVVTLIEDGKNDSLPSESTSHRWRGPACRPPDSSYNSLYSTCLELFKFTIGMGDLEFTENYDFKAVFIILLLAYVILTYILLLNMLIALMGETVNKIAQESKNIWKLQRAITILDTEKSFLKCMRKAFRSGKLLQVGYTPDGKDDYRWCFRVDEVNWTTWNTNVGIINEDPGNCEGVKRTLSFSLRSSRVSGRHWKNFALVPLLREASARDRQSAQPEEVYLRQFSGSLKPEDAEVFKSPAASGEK

Row | IC50 (human VR1 receptors) | T1/2 [1] | half-life at 1 μM [2] | Molecule
1 | 3.01 nM | 117 min |  | N-((1R)-1-{3,5-Difluoro-4-[(methylsulfonyl)amino]phenyl}ethyl)-2-[3,5-difluoro-4-(2,2,2-trifluoro-1-dimethylethyl)phenyl]-2-methylcyclopropanecarboxamide [Example 80]
2 | 15 nM | 33 min |  | Cc1cc([C@@H](C)NC(=O)C2CC2c2ccc(C(C)(C)C)cc2)ccc1NS(C)(=O)=O (stereo partly shown) [Example 7, 2-(4-tert-Butylphenyl)-N-((1 FR)-1-{3-methyl-4-[(methylsulfonyl)amino]phenyl}ethyl)cyclopropanecarboxamide]
3 | 0.76 nM | >120 min |  | C[C@@H](NC(=O)C1CC1(C)c1ccc(C(F)(F)F)c(F)c1)c1cc(F)c(NS(C)(=O)=O)c(F)c1 (stereo partly drawn) [Example 73, N-((1R)-1-{3,5-Difluoro-4-[(methylsulfonyl)amino]phenyl}ethyl)-2-[3-fluoro-4-(trifluoromethyl)phenyl]-2-methylcyclooropanecarboxamide]
4 | 38 nM |  | 37 min | C[C@@H](NC(=O)C1CC1c1ccc(C(C)(C)C)cc1)c1ccc(NS(C)(=O)=O)c(F)c1 (stereo partly drawn) [Example 8, 2-(4-tert-Butylphenyl)-N-((1R)-1-{3-fluoro-4-[(methylsulfonyl)amino]phenyl}ethyl)cyclopropanecarboxamide]
5 | 50.5 nM |  | 50 min | C[C@@H](NC(=O)C1CC1(C)c1ccc(C(C)(C)C(F)(F)F)cc1)c1ccc(NS(C)(=O)=O)c(F)c1 (single isomer, unassigned) [Example 77]
6 | 27 nM |  | 83 min | Cc1cc([C@@H](C)NC(=O)C2CC2(C)c2ccc(C(F)(F)F)nc2)ccc1NS(C)(=O)=O (stereo partly drawn) [Example 12, 2-Methyl-N-((1R)-1-{3-methyl-4-[(methylsulfonyl)amino]phenyl}ethyl)-2-[6-(trifluoromethyl)pyridin-3-yl]cyclopropanecarboxamide]
7 | 23 nM |  | > 120 min | Cc1cc([C@@H](C)NC(=O)C2CC2c2ccc(C(F)(F)F)cc2)ccc1NS(C)(=O)=O (stereo partly drawn) [Example 19a, N-((1R)-1-{3-Methyl-4-[(methylsulfonyl)amino]phenyl}ethyl)-2-[4-(trifluoromethyl)phenyl]cyclopropanecarboxamide]
8 | 20.1 nM |  | > 120 min | C[C@@H](NC(=O)[C@H]1C[C@]1(C)c1ccc(C(F)(F)F)cc1)c1ccc(NS(C)(=O)=O)cc1 [Example 21, (1S,2S)-2-Methyl-N-((1R)-1-{4-[(methylsulfonyl)amino]phenyl}ethyl)-2-[4-(trifluoromethyl)phenyl]cyclopropanecarboxamide]
9 | 21 nM |  | > 120 min | C[C@@H](NC(=O)[C@@H]1C[C@@]1(C)c1ccc(C(F)(F)F)c(F)c1)c1cc(F)c(NS(C)(=O)=O)c(F)c1 [Example 74, N-((1R)-1-{3,5-Difluoro-4-[(methylsulfonyl)amino]phenyl}ethyl)-2-[3-fluoro-4-(trifluoromethyl)phenyl]-2-methylcyclopropanecarboxamide]
10 | 24.5 nM |  | 3 min | Cc1cc([C@@H](C)NC(=O)[C@H]2C[C@]2(C)c2ccc(C(F)(F)F)nc2N2CCOCC2)ccc1NS(C)(=O)=O [Example 84, 2-Methyl-N-((1R)-1-{3-methyl-4-[(methylsulfonyl)amino]phenyl}ethyl)-2-[2-morpholin-4-yl-6-(trifluoromethyl)pyridin-3-yl]cyclopropanecarboxamide]
11 | 282 nM |  | 119 min | C[C@@H](NC(=O)C1CC1c1ccc(C(C)(C)C(F)(F)F)cc1)c1ccc(NS(C)(=O)=O)c(F)c1 (stereo partly drawn) [Example 18, N-((1R)-1-{3-Fluoro-4-[(methylsulfonyl)amino]phenyl}ethyl)-2-[4-(2,2,2-trifluoro-1,1-dimethylethyl)phenyl]cyclopropanecarboxamide]
12 | 19.3 nM |  | 23 min | Cc1cc([C@@H](C)NC(=O)C2CC2(C)c2ccc(SC(F)(F)F)cc2)ccc1NS(C)(=O)=O (stereo partly drawn) [Example 24, 2-Methyl-N-((1R)-1-{3-methyl-4-[(methylsulfonyl)amino]phenyl}ethyl)-2-{4-[(trifluoromethyl)thio]phenyl}cyclopropanecarboxamide]
13 | 0.48 nM |  | 15.8 min | Cc1cc([C@@H](C)NC(=O)C2CC2(C)c2cc(F)c(C(C)(C)C(F)(F)F)c(F)c2)ccc1NS(C)(=O)=O (single isomer, unassigned) [Example 71]
14 | 12.3 nM |  | 61 min | Cc1cc([C@@H](C)NC(=O)C2CC2(C)c2ccc(OC(F)(F)F)cc2)ccc1NS(C)(=O)=O (single isomer, unassigned) [Example 28]
15 | 10.9 nM |  | > 120 min | C[C@@H](NC(=O)[C@H]1C[C@]1(C)c1ccc(C(F)(F)F)cc1)c1ccc(NS(C)(=O)=O)c(F)c1 [Example 23, (1S,2S)-N-((1R)-1-{3-Fluoro-4-[(methylsulfonyl)amino]phenyl}ethyl)-2-methyl-2-[4-(trifluoromethyl)phenyl]cyclopropanecarboxamide]
16 | 203 nM |  | 21 min | C[C@@H](NC(=O)[C@H]1C[C@@H]1c1ccc(C(C)(C)C(F)(F)F)cc1)c1ccc(NS(C)(=O)=O)c(CO)c1 [Example 48, N-((1R)-1-{3-(Hydroxymethyl)-4-[(methylsulfonyl)amino]phenyl}ethyl)-2-[4-(2,2,2-trifluoro-1,1-dimethylethyl)phenyl]cyclopropanecarboxamide]
17 | 190 nM |  | 9 min | Cc1cc(CNC(=O)C2CC2c2ccc(C(C)(C)C)c(F)c2)ccc1NS(C)(=O)=O (stereo not shown) [Example 4, 2-(4-tert-Butyl-3-fluorophenyl)-N-{3-methyl-4-[(methylsulfonyl)amino]benzyl}cyclopropanecarboxamide]
18 | 138 nM |  | 32 min | Cc1cc([C@@H](C)NC(=O)C2CC2c2cc(F)c(C(C)(C)C(F)(F)F)c(F)c2)ccc1NS(C)(=O)=O (single isomer, unassigned) [Example 30]
19 | 15.6 nM |  | 5 min | Cc1cc([C@@H](C)NC(=O)C2CC2c2ccc(C(C)(C)C)nc2N2CCCC2)ccc1NS(C)(=O)=O (stereo partly drawn) [Example 51, 2-(6-tert-Butyl-2-pyrrolidin-1-ylpyridin-3-yl)-N-((1R)-1-{3-methyl-4-[(methylsulfonyl)amino]phenyl}ethyl)cyclopropanecarboxamide]
20 | 78.3 nM |  | 38 min | Cc1cc([C@@H](C)NC(=O)C2CC2(C)c2ccc(S(=O)(=O)C(F)(F)F)cc2)ccc1NS(C)(=O)=O (stereo partly drawn) [Example 26, 2-Methyl-N-((1R)-1-{3-methyl-4-[(methylsulfonyl)amino]phenyl}ethyl)-2-{4-[(trifluoromethyl)sulfonyl]phenyl}cyclopropanecarboxamide]
